Assay results: article PMC11853379, “Glioblastoma Cell Migration, Invasion and Vasculogenic Mimicry Downmodulated by Novel uPAcyclin Derivatives” (Cells, 2025)
Positions of bridges follow the written chain, without caps; N, C: chain ends. Residues, ends and D or L forms follow the SMILES beside them.

Tested on: U87-MG cells
Assay: F-actin cytoskeletal rearrangement, rhodamine-phalloidin staining
Format: cell-based, human
Details: 100 nM peptide pre-incubated 40 min 37 °C, then 5% FBS 3 h
Procedure: The U87-MG cells were analyzed for their cytoskeletal organization upon exposure to the indicated peptides. Briefly, 2 × 10^5 cells/sample were harvested via mild trypsinization, pre-treated for 40 min at 37 °C with 100 nM of selected peptides, and incubated with 5% FBS for 3 h at 37 °C. Samples diluted in a serum-free medium were included as negative controls. Then cells were fixed, permeabilized, and stained with 0.1 μg/mL rhodamine–phalloidin (Sigma-Merck, St. Louis, MO, USA) for 40 min at rt. To stain nuclei, the slides were incubated with 20 ng/mL DAPI (4′,6-Diamidino-2- phenylindole, Sigma-Merck, St. Louis, MO, USA) for 10 min at rt, mounted with Mowiol Mounting Medium (Sigma-Merck, St. Louis, MO, USA), and examined with the DMI6000 Leica Inverted Fluorescence Microscope ([…], Milan, Italy) at 40× magnification. At least 4 fields/samples were acquired, and the total fluorescence was measured with ImageJ.
Figure 5 Representative images of U87-MG cytoskeletal rearrangements. […] F-actin was detected via staining with rhodamine–phalloidin, as specified in the Methods section, using the Leica DMI 6000 Inverted Microscope at 40× magnification. […] In the histogram, the results are expressed as a percentage of total fluorescence intensity in the absence of FBS and peptide (no peptide); ** p-value < 0.005, * p ≤ 0.05.

Row | Compound | reduction in total F-actin fluorescence (inhibition of cytoskeletal rearrangements) [%]
1 | CC(=O)N[C@@H](CCCCN)C(=O)N[C@@H](C)C(=O)N[C@H]1CCC(=O)NCCCC[C@@H](C(N)=O)NC(=O)[C@H](CC(C)C)NC(=O)[C@H](CCC(=O)O)NC(=O)[C@H](CCC(=O)O)NC(=O)[C@@H]2CCCN2C(=O)[C@H](C)NC(=O)[C@H](CO)NC1=O [[Ala^2,Ala^5]uPAcyclin] (Ac-KAESAPEELK-NH2; lactam 3-10) | 50
2 | CC(=O)N[C@@H](CCCCN)C(=O)N1CCC[C@H]1C(=O)N[C@H]1CCC(=O)NCCCC[C@@H](C(N)=O)NC(=O)[C@H](CC(C)C)NC(=O)[C@H](CCC(=O)O)NC(=O)[C@H](CCC(=O)O)NC(=O)[C@@H]2CCCN2C(=O)[C@@H]2CCCN2C(=O)[C@H](CO)NC1=O [uPAcyclin] (Ac-KPESPPEELK-NH2; lactam 3-10) | 35
